Experiments:
HEK293 cells [1] = experiment: Cell viability assay without ER stress inducer (cytotoxicity, WST-8); type: cell-based; details: 64 h
Protocol: HEK293 cells were treated with compound 1, compound 4, compound 5, or compound 6 (25 μM or 100 μM, respectively) for 64 hours. The vertical axis represents relative cell viability (unit: %), and the horizontal axis represents concentration (unit: μM). Cell viability was measured using a WST-8 cell counting kit. Error bars represent s.d. (n=3).
(§1) FIG. 31 is a graph showing the results of a cell viability assay using bafilomycin A1. HEK293 cells were treated with bafilomycin A1 in DMEM (10% FBS) for 48 hours. The vertical axis represents relative cell viability (unit: %), and the horizontal axis represents the concentration of bafilomycin A1 (unit: μM). Cell viability was measured using a WST-8 cell counting kit. Error bars represent s.d. (n=3).
as §1, with “32” for “31”, “MG132.” for “bafilomycin A1.”, “MG132” for “bafilomycin A1”, “t),” for “%),”
The term “Efficacy” denotes ER (endoplasmic reticulum) stress inhibition activity. The term “Toxicity” denotes cytotoxicity. In the ER stress inhibition activity (Efficacy), “−” indicates no activity, “+” indicates weak activity, and “++” indicates strong activity. In addition, “XD7” in Table 1 below represents compound 6. That is, XD7 and compound 6 are the same compound.

BSA = BSA (Bos taurus, UniProt P02769); experiment: Native PAGE analysis of heat-induced BSA denaturation; type: biochemical; details: 75° C. 1 h; compounds 100 μM, PBA 10 mM
Protocol: Samples were subjected to native PAGE analysis using 8% acrylamide gels in 0.1 M Tris-HCl, pH of 7.8 (cathode) and 68 mM glycine, 53 mM Tris-HCl, pH of 8.9 (anode). After staining the gel with Coomassie Brilliant Blue, images were taken using an ImageQuant LAS500 imager (Cytiva).

fibronectin = experiment: Western blotting of TGF-β2-induced fibronectin production in iFECD; type: cell-based, human; details: TGF-β2 stimulated iFECD
Protocol: 5 μg of the extracted proteins were separated by SDS-PAGE and transferred to a nitrocellulose membrane. The primary antibodies used were mouse anti-fibronectin antibody (BD Bioscience, 610077) and mouse anti-GAPDH antibody (MBL, M171-3). The secondary antibodies used were peroxidase-labeled anti-rabbit antibody and anti-mouse antibody (GE Healthcare Biosciences, NA931V, NA934V). The primary antibodies were diluted as follows: mouse anti-fibronectin antibody, 15,000-fold; and mouse anti-GAPDH antibody, 5,000-fold. The secondary antibodies were diluted 5,000-fold. For detection, Chemi Lumi ONE Ultra (Nacalai Tesque, 11644-40) was used. The intensity of the detected bands was analyzed using a LAS-4000mini lumino image analyzer (Fujifilm) and ImageQuant™ software (GE Healthcare).

denatured BSA-flu = denatured BSA-flu (Bos taurus, UniProt P02769); experiment: Co-assembly with fluorescently labeled BSA (BSA-flu), confocal imaging; type: binding; details: 25° C. 19 h, excess unlabeled BSA 2.0 mg/mL
Protocol: To prepare denatured BSA-flu, a solution of BSA-flu (1.1 mg/mL) in PBS (pH of 7.4) was incubated at 80° C. for 1 hour. Native or denatured BSA-fluorescein (final concentration: 0.1 mg/mL) was added to a solution of compound 1 (100 μM) or compound 6 (25 μM) in PBS (pH of 7.4) containing 2.0 mg/mL BSA. The mixture was incubated at 25° C. for 19 hours and then images were taken with a CV1000 confocal microscope. The fluorescence intensity of the co-assemblies was quantified from the images obtained using ImageJ software.

[2] = system: mouse embryonic fibroblasts (MEFs); experiment: Tunicamycin assay using autophagy-deficient cells; type: cell-based; details: for Rescue from ER stress-induced cell death: wild-type MEFs, compound 1 100 μM, compound 6 25 μM, 18 h, tunicamycin 5.0 μg/mL 48 h
Protocol: (§2) Cellular protein aggregates are often cleared by cellular mechanisms, such as autophagy and ubiquitin-proteasome system. To examine the importance of these proteolytic pathways in the activity of compounds 1 and 6, their ability to inhibit tunicamycin-induced cytotoxicity in the presence of an autophagy or proteasome inhibitor (bafilomycin A1 or MG132, respectively) was measured. FIG. 9 is a graph showing the results of a tunicamycin assay using an autophagy or proteasome inhibitor. Cells were pre-incubated with compound 1 or compound 6 for 16 hours and then treated with tunicamycin (5.0 μg/mL) in the presence or absence of a specified substance for 48 hours. FIG. 9(A) is a graph showing measurements in the presence or absence of bafilomycin A1 (Baf A1, autophagy inhibitor). FIG. 9(B) is a graph showing measurements in the presence or absence of MG132 (proteasome inhibitor). Error bars represent s.d. (n=3). Statistical analysis was performed according to the one-way ANOVA and Dunnett's test. *P<0.05; n.s.: not significant. […] The concentrations used of the inhibitors were confirmed to be non-toxic to cells (FIGS. 31 and 32). To further study the role of autophagy, autophagy-deficient atg7^−/− and p62^−/− mouse embryonic fibroblasts (MEFs) were subjected to a tunicamycin assay. FIG. 10 is a graph showing the results of the tunicamycin assay using the autophagy-deficient cells. Wild-type (wt), atg7^−/−, or p62^−/− mouse embryonic fibroblasts (MEFs) were treated with molecule 1 (100 μM) or molecule 6 (25 μM) for 18 hours and then incubated with tunicamycin (5.0 μg/mL) for 48 hours. Error bars represent s.d. (n=3). Statistical analysis was performed according to the one-way ANOVA and Dunnett's test. *P<0.05, **P<0.01. ATG7 is an E1-like enzyme important for phagophore expansion, and p62 is an autophagy receptor for ubiquitinated substrates (Reference Material 20 below). Wild-type (wt), atg7^−/−, or p62^−/− MEF cells were treated with compound 1 or compound 6 for 18 hours, followed by treatment with tunicamycin (5.0 μg/mL) for 48 hours. […] Nat Rev Mol Cell Bio 2018, 19 (6), 349-364. https://doi.org/10.1038/s41580-018-0003-4.

HEK293 cells [3] = experiment: Tunicamycin assay using an autophagy or proteasome inhibitor; type: cell-based; details: pre-incubation 16 h, tunicamycin 5.0 μg/mL 48 h
Protocol: as §2

Chain of BSA (P02769 25-607): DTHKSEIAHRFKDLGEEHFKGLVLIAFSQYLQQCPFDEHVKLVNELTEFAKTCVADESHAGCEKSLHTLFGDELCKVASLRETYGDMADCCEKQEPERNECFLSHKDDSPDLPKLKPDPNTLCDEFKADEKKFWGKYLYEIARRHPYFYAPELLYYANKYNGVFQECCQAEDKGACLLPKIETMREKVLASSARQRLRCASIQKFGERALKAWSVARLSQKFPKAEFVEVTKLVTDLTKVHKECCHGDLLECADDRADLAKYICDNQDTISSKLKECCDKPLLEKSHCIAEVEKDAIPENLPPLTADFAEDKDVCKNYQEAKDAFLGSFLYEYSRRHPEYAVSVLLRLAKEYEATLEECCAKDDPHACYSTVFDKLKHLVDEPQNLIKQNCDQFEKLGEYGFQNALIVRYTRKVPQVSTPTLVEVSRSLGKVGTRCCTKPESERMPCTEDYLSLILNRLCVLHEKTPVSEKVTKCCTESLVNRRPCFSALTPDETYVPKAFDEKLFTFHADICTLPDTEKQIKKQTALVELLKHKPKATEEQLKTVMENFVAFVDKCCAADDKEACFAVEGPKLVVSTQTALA
Chain of denatured BSA-flu (P02769 25-607): as above

| SMILES | Cytotoxicity (HEK293 cells [1]; up to 100 μM) | Inhibition of heat-induced denaturation of BSA (BSA) | Fibronectin production (fibronectin) | Co-assembly with native or denatured BSA-flu (denatured BSA-flu) | Ability to rescue from ER stress-induced cell death ([2]; atg7−/− MEFs) | Ability to rescue from ER stress-induced cell death ([2]; p62−/− MEFs) | Rescue from ER stress-induced cell death [2] | Activity in the presence of MG132 (HEK293 cells [3]) | Activity in the presence of bafilomycin A1 (HEK293 cells [3]) | Cytotoxicity (HEK293 cells [1]; at 25 μM) | Cytotoxicity (HEK293 cells [1]; at 100 μM) |
| --- | --- | --- | --- | --- | --- | --- | --- | --- | --- | --- | --- |
| NS(=O)(=O)c1ccc(Nc2ccn3c(n2)nc(=O)c2sc4cc(F)ccc4c23)cc1 [compound 1] | no obvious cytotoxicity | does not exhibit activity to inhibit the thermal denaturation of BSA | almost no production of fibronectin was observed | selectively formed co-assemblies with heat-denatured BSA | severely impaired | severely impaired | rescued | no significant effect | partially canceled |  |  |
| COc1ccc2c(c1)sc1c(=O)nc3nc(Nc4ccc(S(N)(=O)=O)cc4)ccn3c12 [compound 6] |  | does not exhibit activity to inhibit the thermal denaturation of BSA | almost no production of fibronectin was observed | selectively formed co-assemblies with heat-denatured BSA | severely impaired | severely impaired | rescued | no significant effect | partially canceled | no obvious cytotoxicity | slightly reduced cell viability |
